Where two headings read alike, the source gives them in different places.
Experiments:
KRAS^G12D/cRAF = KRAS^G12D/cRAF (Homo sapiens, UniProt P01116, G12D); experiment: KRAS G12D/cRAF binding test (Alphalisa); details: His-tagged KRAS G12D + GMPPNP, GST-tagged cRAF
Method: The compound was dissolved in 100% DMSO at a starting concentration of 5 mM and diluted in DMSO with a 3-fold serial dilution method for a total of 8 concentration points. 1 μL of the compound or DMSO at each concentration point was added into 99 μL of the experimental buffer to obtain 10× stock solution.
• 1) 4 μL of the working mixture solution of His-tagged KRAS^G12D and GMPPNP was added to the 384-well plate. • 2) The 10× compound stock solution or 1% DMSO was added to the 384-well plate. • 3) The plate was centrifuged at 1000 rpm for 1 minute. • 4) 4 μL of GST-tagged cRAF solution was added to the 384-well plate. • 5) The plate was centrifuged at 1000 rpm for 1 minute. • 6) The plate was incubated at room temperature for 15 minutes. • 7) 10 μL of detection working solution was added to the 384-well plate. • 8) The plate was centrifuged at 1000 rpm for 1 minute. • 9) The plate was incubated at room temperature for 60 minutes. • 10) The 384-well plate was placed into Envision and assay data was obtained.
(§1) The ratio for each compound concentration was calculated from the signal of the DMSO control group contained in each assay plate and the Alphalisa signal in each compound well. The compound concentration required for inhibitory concentration at 50% (IC50) was determined using a four-parameter logarithmic dose-response equation by testing the concentration of the compound and the value of the ratio. The endpoint value (IC50) of the reference compound was assessed in each experiment as a quality control measure. If the endpoint value is within three times the expected value, the experiment may be considered acceptable.

AGS cell = experiment: Anti-proliferative 2D CTG assay, AGS cells; format: cell-based; details: AGS cells, incubated 3 days, CTG, read-out: AGS cell IC50
Method: When the cell confluence was about 80%, the cells were isolated with 0.25% trypsin. Isolated cells were resuspended in 5 mL fresh cell culture medium and centrifuged for cell collection. Meanwhile, the number of cells was also calculated. The cells were then suspended in culture medium of medium concentration. The cells were placed into a 96-well plate with 1000 cells/well for AGS and 1000 cells/well for GP2D. The 96-well plate was placed in an incubator at 37° C. and incubated overnight.
1.2 Day 1 Compound Treatment From the 10 mM stock solution, with a ratio of 1:5, 10-point serial dilutions were performed. The 10× medium containing the compound was transferred into corresponding wells of the 96 wells. The final maximum compound concentration was […] and the final DMSO concentration was 0.1%. The 96-well plate was placed in a 37° C. incubator, the AGS cells were incubated for 3 days, and the GP2D cells were incubated for 4 days.
50 μL/well of detection reagent (CTG) was added to the AGS cells, and the signal was read in an Envision machine.
as §1, with “The percent inhibition (%) at” for “The ratio for”, “signal in” for “signal of”, “the HPE and ZPE” for “the DMSO”, “control wells and the fluorescence signal in the individual compound wells included” for “control group contained”, “assay plate. […]” for “assay plate and the Alphalisa signal in each compound well.”, “the inhibition percentage value.” for “the value of the ratio.”

[1] = Homo sapiens, 72 h, class symbols
[2] = Homo sapiens, 72 h, numeric values

KRAS^G12D/cRAF, sequence (P01116 1-188 isoform P01116-2 G12D): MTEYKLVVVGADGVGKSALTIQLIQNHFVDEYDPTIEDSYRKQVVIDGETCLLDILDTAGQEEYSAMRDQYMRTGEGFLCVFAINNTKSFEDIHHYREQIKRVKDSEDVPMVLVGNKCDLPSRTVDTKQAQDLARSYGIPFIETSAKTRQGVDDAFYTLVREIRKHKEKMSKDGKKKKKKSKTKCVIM

Compound | IC50 (KRAS^G12D/cRAF; class symbols) [µM] | IC50 (AGS cell; [1]) [µM] | IC50 (KRAS^G12D/cRAF; numeric values) [µM] | IC50 (AGS cell; [2]) [µM] | IC50 (AGS cell; numeric values) [µM]
C#Cc1c(F)ccc2cc(O)cc(-c3ncc4c(N5CC6(C)CCC(C)(C5)N6)nc(OC[C@@]56CCCN5C[C@H](F)C6)nc4c3F)c12 [Example 20, 4-(4-(1,5-dimethyl-3,8-diazabicyclo[3.2.1]octan-3-yl)-8-fluoro-2-(((2R,7aS)-2-fluorotetrahydro-1H-pyrrolizin-7a(5H)-yl)methoxy)pyrido[4,3-d]pyrimidin-7-yl)-5-ethynyl-6-fluoronaphthalen-2-ol] | 0.05 to 0.5 | < 0.05 |  |  | 
C#Cc1c(F)ccc2cc(O)cc(-c3ncc4c(N5CC6CCC(/C=C\F)(C5)N6)nc(OC[C@@]56CCCN5C[C@H](F)C6)nc4c3F)c12 (stereo partly drawn) [Example 27, 5-ethynyl-6-fluoro-4-(8-fluoro-2-(((2R,7aS)-2-fluorotetrahydro-1H-pyrrolizin-7a(5H)-yl)methoxy)-4-(1-((Z)-2-fluorovinyl)-3,8-diazabicyclo[3.2.1]octan-3-yl)pyrido[4,3-d]pyrimidin-7-yl) naphthalen-2-ol] |  |  | 0.054 | 0.011 | 
C#Cc1c(F)ccc2cc(O)cc(-c3ncc4c(N5CC6CCC(/C=C\C)(C5)N6)nc(OC[C@@]56CCCN5C[C@H](F)C6)nc4c3F)c12 (stereo partly drawn) [Example 29, 5-ethynyl-6-fluoro-4-(8-fluoro-2-(((2R,7aS)-2-fluorotetrahydro-1H-pyrrolizin-7a(5H)-yl)methoxy)-4-(1-((Z)-prop-1-en-1-yl)-3,8-diazabicyclo[3.2.1]octan-3-yl)pyrido[4,3-d]pyrimidin-7-yl)naphthalen-2-ol] | 0.05 to 0.5 | < 0.05 |  |  | 
[2H]C([2H])([2H])OCC12CCC(CN(c3nc(OC[C@@]45CCCN4C[C@H](F)C5)nc4c(F)c(-c5cc(O)cc6ccc(F)c(C#C)c56)nc(OC)c34)C1)N2 (stereo partly drawn) [Example 36, 5-ethynyl-6-fluoro-4-(8-fluoro-2-(((2R,7aS)-2-fluorotetrahydro-1H-pyrrolizin-7a(5H)-yl)methoxy)-5-methoxy-4-(1-((methoxy-d3)methyl)-3,8-diazabicyclo[3.2.1]octan-3-yl)pyrido[4,3-d]pyrimidin-7-yl)naphthalen-2-ol] | 0.05 to 0.5 | 0.05 to 0.5 |  |  | 
[2H]C([2H])([2H])OC[C@@]12CC[C@@]([2H])(CN(c3nc(OC[C@@]45CCCN4C[C@H](F)C5)nc4c(F)c(-c5cc(O)cc6ccc(F)c(C#C)c56)ncc34)C1)N2 [Example 48, 5-ethynyl-6-fluoro-4-(8-fluoro-2-(((2R,7aS)-2-fluorotetrahydro-1H-pyrrolizin-7a(5H)-yl)methoxy)-4-((1R,5S)-1-((methoxy-d3)methyl)-3,8-diazabicyclo[3.2.1]octan-3-yl-5-d)pyrido[4,3-d]pyrimidin-7-yl)naphthalen-2-ol] | > 0.5 | < 0.05 |  |  | 
C#Cc1c(F)ccc2cc(O)cc(-c3ncc4c(N5C[C@@H]6CC[C@](COC)(C5)N6)nc(OC[C@@]56CCCN5C[C@H](F)C6)nc4c3F)c12 [Example 46, 5-ethynyl-6-fluoro-4-(8-fluoro-2-(((2R,7aS)-2-fluorotetrahydro-1H-pyrrolizin-7a(5H)-yl)methoxy)-4-((1R,5S)-1-(methoxymethyl)-3,8-diazabicyclo[3.2.1]octan-3-yl)pyrido[4,3-d]pyrimidin-7-yl)naphthalen-2-ol] | 0.05 to 0.5 | < 0.05 |  |  | 
C#Cc1c(F)ccc2cc(O)cc(-c3ncc4c(N5C[C@@H]6CC[C@](C=C)(C5)N6)nc(OC[C@@]56CCCN5C[C@H](F)C6)nc4c3F)c12 [Example 58, 5-ethynyl-6-fluoro-4-(8-fluoro-2-(((2R,7aS)-2-fluorotetrahydro-1H-pyrrolizin-7a(5H)-yl)methoxy)-4-((1S,5S)-1-vinyl-3,8-diazabicyclo[3.2.1]octan-3-yl)pyrido[4,3-d]pyrimidin-7-yl)naphthalen-2-ol] |  |  | 0.047 | 0.127 | 
C#Cc1c(F)ccc2cc(O)cc(-c3ncc4c(N5C[C@@H]6CC[C@](/C=C/F)(C5)N6)nc(OC[C@@]56CCCN5C[C@H](F)C6)nc4c3F)c12 [Example 62, 5-ethynyl-6-fluoro-4-(8-fluoro-2-(((2R,7aS)-2-fluorotetrahydro-1H-pyrrolizin-7a(5H)-yl)methoxy)-4-((1S,5S)-1-((E)-2-fluorovinyl)-3,8-diazabicyclo[3.2.1]octan-3-yl)pyrido[4,3-d]pyrimidin-7-yl)naphthalen-2-ol] |  |  | 0.018 | 0.027 | 
[2H]C([2H])([2H])OCC12CCC(CN(c3nc(OC[C@@]45CCCN4C[C@H](F)C5)nc4c(F)c(-c5cc(O)cc6cc(Cl)c(F)c(C#C)c56)ncc34)C1)N2 (stereo partly drawn) [Example 16, 7-chloro-5-ethynyl-6-fluoro-4-(8-fluoro-2-(((2R,7aS)-2-fluorotetrahydro-1H-pyrrolizin-7a(5H)-yl)methoxy)-4-(1-((methoxy-d3)methyl)-3,8-diazabicyclo [3.2.1]octan-3-yl)pyrido[4,3-d]pyrimidin-7-yl)naphthalen-2-ol] | > 0.5 | 0.05 to 0.5 |  |  | 
C#Cc1c(F)ccc2cc(O)cc(-c3ncc4c(N5CC6CCC(CC(=O)OC)(C5)N6)nc(OC[C@@]56CCCN5C[C@H](F)C6)nc4c3F)c12 (stereo partly drawn) [Example 34, Methyl 2-(3-(7-(8-ethynyl-7-fluoro-3-hydroxynaphthalen-1-yl)-8-fluoro-2-(((2R,7aS)-2-fluorohexahydro-1H-pyrrolizin-7a-yl)methoxy)pyrido[4,3-d]pyrimidin-4-yl)-3,8-diazabicyclo[3.2.1]octan-1-yl)acetate] | < 0.05 | 0.05 to 0.5 |  |  | 
[2H]C([2H])([2H])OC[C@]12CC[C@]([2H])(CN(c3nc(OC[C@@]45CCCN4C[C@H](F)C5)nc4c(F)c(-c5cc(O)cc6ccc(F)c(C#C)c56)ncc34)C1)N2 [Example 47, 5-ethynyl-6-fluoro-4-(8-fluoro-2-(((2R,7aS)-2-fluorotetrahydro-1H-pyrrolizin-7a(5H)-yl)methoxy)-4-((1S,5R)-1-((methoxy-d3)methyl)-3,8-diazabicyclo[3.2.1]octan-3-yl-5-d)pyrido[4,3-d]pyrimidin-7-yl)naphthalen-2-ol] | 0.05 to 0.5 | 0.05 to 0.5 |  |  | 
C#Cc1c(F)ccc2cc(O)cc(-c3ncc4c(N5CC6CCC(/C=C/F)(C5)N6)nc(OC[C@@]56CCCN5C[C@H](F)C6)nc4c3F)c12 (stereo partly drawn) [Example 28, 5-ethynyl-6-fluoro-4-(8-fluoro-2-(((2R,7aS)-2-fluorotetrahydro-1H-pyrrolizin-7a(5H)-yl)methoxy)-4-(1-((E)-2-fluorovinyl)-3,8-diazabicyclo[3.2.1]octan-3-yl)pyrido[4,3-d]pyrimidin-7-yl) naphthalen-2-ol] | 0.05 to 0.5 | < 0.05 |  |  | 
C#Cc1c(F)ccc2cc(O)cc(-c3ncc4c(N5C[C@H]6CC[C@@](C)(C5)N6)nc(OC[C@@]56CCCN5C[C@H](F)C6)nc4c3F)c12 [Example 44] |  |  | 0.019 |  | 0.0061
C#Cc1c(F)ccc2cc(O)cc(-c3ncc4c(N5CC6CCC(COC(F)F)(C5)N6)nc(OC[C@@]56CCCN5C[C@H](F)C6)nc4c3F)c12 (stereo partly drawn) [Example 4, 4-(4-(1-((difluoromethoxy)methyl)-3,8-diazabicyclo[3.2.1]octan-3-yl)-8-fluoro-2-(((2R,7aS)-2-fluorotetrahydro-1H-pyrrolizin-7a(5H)-yl)methoxy)pyrido[4,3-d]pyrimidin-7-yl)-5-ethynyl-6-fluoronaphthalen-2-ol] | 0.05 to 0.5 | 0.05 to 0.5 |  |  | 
C#Cc1c(F)ccc2cc(O)cc(-c3ncc4c(N5C[C@@H]6CC[C@](/C=C\F)(C5)N6)nc(OC[C@@]56CCCN5C[C@H](F)C6)nc4c3F)c12 [Example 60, 5-ethynyl-6-fluoro-4-(8-fluoro-2-(((2R,7aS)-2-fluorotetrahydro-1H-pyrrolizin-7a(5H)-yl)methoxy)-4-((1S,5S)-1-((Z)-2-fluorovinyl)-3,8-diazabicyclo[3.2.1]octan-3-yl)pyrido[4,3-d]pyrimidin-7-yl)naphthalen-2-ol] |  |  | 0.025 | 0.079 | 

From patent US20260176262A1, “KRAS INHIBITORS, PREPARATION METHOD THEREFOR, AND PHARMACEUTICAL USE THEREOF” (ABBISKO THERAPEUTICS CO., LTD., priority 2021, published 2026)
